Where “and” joins values, the source holds several entries; their conditions need not be identical. Equal values may be shown once.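 1) Cells in 96-well plates. 2) Compound, 48 h, 5 concentrations. 3) Linear interpolation between surrounding doses. 4) Unreached endpoint = highest concentration. GI50: concentration for 50% inhibition of growth. TGI: concentration producing complete growth inhibition.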 *1 amine or outer side, *2 acyl side, *3 side chain or, on linkers, in order; H or OH if unused. Where a SMILES comes first, the peptide text is derived from it. Bridges are numbered along the chain shown (N, C = ends). [ ]: non-standard residue; d: D form. The star is where a group is joined. Phe(3-Me) = Cc1cccc(C[C@H](N)C(=O)O)c1; NH(4-Cl-2-F-phenyl) = Fc1cc(Cl)ccc1N*; Pro(4R-Me) = C[C@H]1CN[C@H](C(=O)O)C1; Hyp = O=C(O)[C@@H]1C[C@@H](O)CN1; aThr = C[C@H](O)[C@H](N)C(=O)O; Pip = O=C(O)[C@@H]1CCCCN1; CO = O=C([*:1])[*:2]
Key:
Assay in all cases: NCI-60 cell line screen, 48 h
[1] = test system: A498 renal
[2] = test system: HOP-62 NSCLC
[3] = test system: IGROV1 ovarian
[4] = test system: MALME-3M melanoma
[5] = test system: MDA-MB-435
[6] = test system: OVCAR-4 ovarian
[7] = test system: RXF 393 renal
[8] = test system: SK-MEL-28 melanoma
[9] = test system: SK-OV-3 ovarian
[10] = test system: SW-620 colon

Structure (SMILES) | GI50 [1] | TGI [1] | GI50 [2] | TGI [2] | GI50 [3] | TGI [3] | GI50 [4] | TGI [4] | GI50 [5] | GI50 [6] | TGI [6] | GI50 [7] | TGI [7] | GI50 [8] | TGI [8] | GI50 [9] | TGI [9] | GI50 [10] | TGI [10] | TGI [5]
COc1ccc(C(=O)c2cc(OC)c(OC)c(OC)c2)cc1O | 1.4 µM | 5.7 µM | 0.0931 µM | > 100 µM | 0.278 µM | > 100 µM | > 100 µM | > 100 µM | < 0.01 µM | 0.61 µM | > 100 µM | 0.0167 µM | > 100 µM | > 80.8 µM | > 100 µM | 0.395 µM | > 100 µM | < 0.01 µM | > 100 µM | –
C=C1C(=O)O[C@@H]2C[C@@H](C)[C@@H]3[C@@H](OC4OC(COC(C)=O)C(O)C(O)C4O)CC(=O)[C@@]3(C)C[C@H]12 (stereo not given in full) | – | 30.1 µM | – | 31.6 µM | – | 6.2 µM | – | 0.849 µM | – | – | 12.5 µM | – | 4.21 µM | – | 6.27 µM | – | 37.4 µM | – | 1.61 µM | 6.03 µM
CCOC(=O)C#Cc1ccc(C#CC(=O)OCC)cc1 | – | > 51.5 µM | – | > 29.3 µM | – | > 100 µM | – | 21.3 µM | – | – | – | – | 16.6 µM | – | > 20.9 µM | – | 84.2 µM | – | > 27.4 µM | 3.86 µM
COc1cc(-c2cc(-c3nc4ccccc4[nH]3)[nH]n2)cc(OC)c1OC | 1.51 µM | 27.1 µM | 3.54 µM | 16.7 µM | 2.34 µM | 15.4 µM | 1.95 µM | 8.49 µM | 2.35 µM | 1.26 µM | 7.03 µM | 1.77 µM | 11.4 µM | 2.72 µM | 9.71 µM | 3.48 µM | 9.74 µM | 7.73 µM | 30.3 µM | 7.61 µM
CNC1NC(=O)c2ccccc2N1Cc1ccc(F)cc1 (stereo not given) | – | > 100 µM | – | > 100 µM | – | > 100 µM | – | > 100 µM | – | – | > 100 µM | – | > 100 µM | – | > 100 µM | – | > 100 µM | – | > 100 µM | > 100 µM
CN(C)CCCn1c2c3ccccc3ccc2c2oc(=O)c3ccccc3c21 | – | 28.6 µM | – | 15.4 µM | – | 23.5 µM | – | 29.8 µM | – | – | > 95 µM | – | 2.75 µM | – | 12.3 µM | – | > 61.8 µM | – | 7.95 µM | > 20 µM
COC[C@H]1OC(=O)c2coc3c2[C@@]1(C)C1=C(C3=O)[C@@H]2CCC(=O)[C@@]2(C)C[C@H]1OC(C)=O | 0.58 µM | 17.3 µM | – | > 100 µM | – | 19.3 µM | 1.44 µM | 39.3 µM | – | 18.6 µM | > 100 µM | 0.264 µM | 3.07 µM | – | > 100 µM | 2.22 µM | 23.5 µM | – | > 100 µM | > 54.3 µM
CCC(C)/C=C(C)/C=C/C(=O)c1c(O)c(-c2ccc(O)cc2)c[nH]c1=O (stereo not given) | 2.03 µM | 16.4 µM | 4.2 µM | 16.3 µM | 2.59 µM | 15 µM | 2.36 µM | 14.1 µM | 2.94 µM | 4.13 µM | 25.3 µM | 1.96 µM | 6.97 µM | – | – | 6.32 µM | 29.4 µM | 3.5 µM | 11.9 µM | 11.2 µM
O=C(O)c1ccc(NS(=O)(=O)c2cccc3cccnc23)cc1 | > 100 µM | > 100 µM | > 100 µM | > 100 µM | > 100 µM | > 100 µM | > 100 µM | > 100 µM | > 100 µM | > 100 µM | > 100 µM | > 100 µM | > 100 µM | > 100 µM | > 100 µM | > 100 µM | > 100 µM | > 100 µM | > 100 µM | > 100 µM
CCc1oc2ccccc2c1C(=O)c1cc(Br)c(O)c(Br)c1 | – | 45 µM | – | 85.7 µM | – | > 100 µM | – | 43.2 µM | – | – | > 100 µM | – | 35 µM | – | > 100 µM | – | > 100 µM | – | > 100 µM | > 100 µM
Cc1cccc(C[C@H](NC(=O)Nc2ccc(Cl)cc2F)C(=O)N[C@@H]2C(=O)N3C[C@H](O)C[C@H]3C(=O)N3CCCC[C@H]3C(=O)N[C@@H](C)C(=O)N3C[C@H](C)C[C@H]3C(=O)O[C@H]2C)c1 ({NH(4-Cl-2-F-phenyl)-CO}-[Phe(3-Me)][aThr][Hyp][Pip]A[Pro(4R-Me)]; ester 2-C) | 0.327 µM | 2.15 µM | 0.484 µM | 3.62 µM | 0.919 µM | 2.98 µM | 0.553 µM | 2.19 µM | 0.438 µM | 0.324 µM | 2.68 µM | 1.31 µM | 2.96 µM | 0.728 µM | 2.08 µM | 0.501 µM | 3.52 µM | 0.595 µM | 10.9 µM | 1.74 µM
CCc1ccc(CCC(=O)Nc2ncc(Cc3ccccc3)s2)o1 | 1.29 µM | 8.87 µM | 2.91 µM | > 100 µM | 3.24 µM | > 100 µM | 18.3 µM | > 100 µM | 0.301 µM | 27.8 µM | > 100 µM | 2.45 µM | 9.13 µM | 9.11 µM | > 100 µM | 2.81 µM | > 100 µM | 0.889 µM | > 100 µM | 10.1 µM
CCN(CC)CCCC(C)Nc1cnc(C(=O)Nc2cc(F)cc3cccnc23)cn1 (stereo not given) | 2.72 µM and 1.6 µM | 14.5 µM and 3.24 µM | 10.8 µM and 1.89 µM | 25.3 µM and 3.62 µM | 3.03 µM and 0.379 µM | 12 µM and 1.4 µM | 1.77 µM and 0.983 µM | 3.38 µM and 2.28 µM | 3.4 µM and 1.45 µM | 2.24 µM and 0.35 µM | – | 4.26 µM and 1.32 µM | 16.9 µM and 2.69 µM | 1.84 µM and 1.22 µM | 3.53 µM and 2.5 µM | 14 µM and 1.68 µM | 27.7 µM and 3.68 µM | 4.03 µM and 0.814 µM | 15 µM and 2.62 µM | 12.8 µM and 3.43 µM
CN(C)CC#Cc1cccc(C(=O)c2cnn(-c3ccc(F)cc3)c2N)c1 | > 21.3 µM | > 25 µM | > 25 µM | > 25 µM | > 21.1 µM | > 25 µM | > 25 µM | > 25 µM | 11.9 µM | > 17.4 µM | > 25 µM | > 25 µM | > 25 µM | > 25 µM | > 25 µM | > 25 µM | > 25 µM | > 25 µM | > 25 µM | > 25 µM

Source: PubChem BioAssay (NCI)
